Laboratory results from ChEMBL document CHEMBL3774350, “The discovery of 2-substituted phenol quinazolines as potent RET kinase inhibitors with improved KDR selectivity” (Eur J Med Chem, 2016).

Key:
[1] = Cytotoxicity in mouse BA/F3 cells after 48 hrs by Cell titre glo-based luminescence assay; settings: BaF3, 48 h
[2] = Aqueous solubility of compound by LC-MS/MS analysis; type: physicochemical

Compound	IC50 [1] [µM]	solubility [2] [µM]
COc1cc2ncnc(Nc3cccc(O)c3)c2cc1OC	> 10	
COc1cc2ncnc(Nc3cccc(O)c3O)c2cc1OC	> 10	
COc1cc2ncnc(Nc3cc(F)cc(O)c3C)c2cc1OC	> 10	
COc1cc2ncnc(Nc3c(F)ccc(O)c3Cl)c2cc1OC	> 10	
COc1cc2ncnc(Nc3cccc(O)c3Br)c2cc1OC	> 10	
COc1cc2ncnc(Nc3c(Cl)ccc(O)c3F)c2cc1OC	> 10	
COc1cc2ncnc(Nc3c(F)ccc(O)c3F)c2cc1OC	> 10	
COc1cc2ncnc(Nc3cccc(O)c3C)c2cc1OC	> 10	
COc1cc2ncnc(Nc3cccc(O)c3Cl)c2cc1OC	> 10	
COc1cc2ncnc(Nc3c(F)ccc(O)c3C)c2cc1OC	> 10	> 100
COc1cc2ncnc(Nc3cc(O)c(C)cc3F)c2cc1OC	> 1	
